{"source": "ChEMBL document CHEMBL1137091", "about": "“Carbonic anhydrase inhibitors. Design of selective, membrane-impermeant inhibitors targeting the human tumor-associated isozyme IX” (J Med Chem, 2004)", "key": {"Homo sapiens [1]": {"species": "Homo sapiens", "assay": "Relative transport activity for the inhibition of Cl-/NO3- exchange measured for AE1 transfected cells (before and after treatment with CAI)", "assay_type": "functional"}, "Homo sapiens [2]": {"species": "Homo sapiens", "assay": "Percentage inhibition for the inhibition of Cl-/NO3- exchange measured for AE1 transfected cells (before and after treatment with CAI)", "assay_type": "functional"}, "Homo sapiens [3]": {"species": "Homo sapiens", "assay": "Inhibitory concentration for the half maximal inhibition of Cl-/NO3- exchange measured for AE1 transfected cells (before and after treatment with CAI)", "assay_type": "functional"}, "Carbonic anhydrase 9": {"molecular_target": "Carbonic anhydrase 9 (Homo sapiens, UniProt Q16790)", "description": "Inhibition constant evaluated for the inhibition of human CA IX (Carbonic anhydrase IX)"}, "Carbonic anhydrase 4": {"molecular_target": "T1, Carbonic anhydrase 4 (Bos taurus, UniProt Q95323)", "T1 sequence (Q95323 whole entry)": "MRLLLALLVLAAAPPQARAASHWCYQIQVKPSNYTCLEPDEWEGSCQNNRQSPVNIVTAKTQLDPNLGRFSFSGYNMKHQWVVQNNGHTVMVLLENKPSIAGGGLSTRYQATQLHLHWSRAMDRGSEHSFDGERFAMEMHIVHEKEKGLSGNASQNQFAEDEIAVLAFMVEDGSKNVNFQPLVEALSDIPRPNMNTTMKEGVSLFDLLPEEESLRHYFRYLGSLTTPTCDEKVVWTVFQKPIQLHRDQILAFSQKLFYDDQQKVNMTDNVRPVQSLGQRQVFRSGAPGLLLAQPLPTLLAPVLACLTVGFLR", "description": "Inhibition constant evaluated for the inhibition of bovine CA IV (Carbonic anhydrase IV)"}, "Carbonic anhydrase 2": {"molecular_target": "Carbonic anhydrase 2 (Homo sapiens, UniProt P00918)", "description": "Inhibition constant evaluated for the inhibition of human CA II (Carbonic anhydrase II)"}, "Carbonic anhydrase 1": {"molecular_target": "Carbonic anhydrase 1 (Homo sapiens, UniProt P00915)", "sequence (P00915 whole entry)": "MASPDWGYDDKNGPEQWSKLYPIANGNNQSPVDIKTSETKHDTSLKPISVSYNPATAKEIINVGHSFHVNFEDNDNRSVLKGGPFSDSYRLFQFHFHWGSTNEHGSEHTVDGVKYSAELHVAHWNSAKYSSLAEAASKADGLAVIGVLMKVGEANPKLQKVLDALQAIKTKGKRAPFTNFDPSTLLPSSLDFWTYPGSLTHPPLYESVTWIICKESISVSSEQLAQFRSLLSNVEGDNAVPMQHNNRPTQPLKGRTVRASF", "description": "Inhibition constant evaluated for the inhibition of human CA I (Carbonic anhydrase I)"}}}
{"smiles": "CCCCc1cc(-c2ccccc2)cc(CCCC)[n+]1-c1ccc(S(=O)(=O)Nc2nnc(S(N)(=O)=O)s2)cc1.[O-][Cl+3]([O-])([O-])[O-]", "values": [{"measurement": "Activity", "setting": "Homo sapiens [1]", "value": 0.709}, {"measurement": "Inhibition", "setting": "Homo sapiens [2]", "value": 34, "unit": "%"}, {"measurement": "IC50", "setting": "Homo sapiens [3]", "value": 1510, "unit": "µM"}]}
{"smiles": "CCCc1cc(-c2ccccc2)cc(CCC)[n+]1-c1ccc(S(=O)(=O)Nc2nnc(S(N)(=O)=O)s2)cc1.[O-][Cl+3]([O-])([O-])[O-]", "values": [{"measurement": "Activity", "setting": "Homo sapiens [1]", "value": 0.651}, {"measurement": "Inhibition", "setting": "Homo sapiens [2]", "value": 32, "unit": "%"}, {"measurement": "IC50", "setting": "Homo sapiens [3]", "value": 126, "unit": "µM"}]}
{"smiles": "Cc1c2cc(c(C)[n+]1-c1ccc(S(=O)(=O)Nc3nnc(S(N)(=O)=O)s3)cc1)CCCCCCCCC2.[O-][Cl+3]([O-])([O-])[O-]", "values": [{"measurement": "Ki", "setting": "Carbonic anhydrase 9", "value": 0.012, "unit": "µM"}, {"measurement": "Activity", "setting": "Homo sapiens [1]", "value": 1}, {"measurement": "Ki", "setting": "Carbonic anhydrase 4", "value": 0.0046, "unit": "µM"}, {"measurement": "Ki", "setting": "Carbonic anhydrase 2", "value": 0.00137, "unit": "µM"}, {"measurement": "Ki", "setting": "Carbonic anhydrase 1", "value": 0.003, "unit": "µM"}]}
